Two substances from patent US6573078B1, “Compounds which inhibit HIV replication” (priority 1992, dated 2003) can be followed below.

Assay type in all cases: cell-based
The subject of data set [1] is CEM cells. The experiment in a line: Cytotoxic or cytostatic effects on CEM cells grown in presence of peptide. The settings on record: 50 mg/ml (highest concentration tested), three days, fresh peptide added each day.
Data set [2] concerns HIV-1LAI virus. Nature of the data set: Peptide blockade of HIV-1 induced cell-cell fusion (syncytia formation; Molt4 cells co-cultivated with chronically infected CEM cells). The note with it: for No. Syncytia/well: Table 3, ctrl cells only = 85. As for the experimental part: The initial screen for antiviral activity of the peptides shown in FIG. 1 was for blockade of syncytium formation induced by overnight co-cultivation of uninfected Molt4 cells with chronically infected (HIV-1IIIB) CEM cells.
Approximately 7×10^4 Molt cells were incubated with 1×10^4 CEM cells chronically infected with the HIV-1LAI virus in 96 well plates (one-half area cluster plates;Costar. Cambridge, Mass.) in a final volume of […] culture media in accordance with known techniques (T. Matthews et al., Proc. Natl. Acad. Sci. U.S.A. 84, 5424 (1987)). Peptide inhibitors were added in a volume of […] and the cell mixtures were incubated for 24 hr at 37° C. At that time point, multinucleated giant cells were estimated by microscopic examination at a 40× magnification which allowed visualization of the entire well in a single field.

For data set [3], the system named is HIV-1LAI. The experiment in a line: Peptide inhibition of infection by cell-free virus (neutralization assay; AA5 cells, RT activity readout). The method, then:
Cell cultures were maintained in 96-well microtiter plates for 8 days by addition of fresh medium (but no further addition of peptides) every other day. On the eighth day post-infection, supernatant was tested for reverse transcriptase activity as evidence of successful infection.
The micro RT assay was adapted from Goff et al. (J. Virol. 38, 239 (1981)) and Willey et al. (J. Virol. 62, 139 (1988)). Supernatants from virus/cell cultures are made 1% in Triton-X100. A […] sample of supernatant was added to 50 ml of RT cocktail in a 96 well U bottom microtiter plate and the samples incubated at […] for 90 min. The cocktail contained 75 mM KCl, 2 mM dithiothreitol, 5 mm Mgcl2l 5 mg/ml poly A (Pharmacia cat. No. 27-4110-01), 0.25 units/ml oligo dT (Pharmacia cat. No. 27-7858-01), 0.05% NP40, 50 mM Tris-HC1, pH 7.8, 0.5 mM non-radioactive dTTP, and 10 mCi/ml ^32p-dTTP (Amersham cat. No. PB.10167). After the incubation period, 40 ml of reaction mixture was applied to a Schleicher and Schuell NA45 membrane (or DE81 paper) saturated in 2×SSC buffer (0.3M NaCl and […]) held in a Schleicher and Schuell Minifold over one sheet of GB003 filter paper. Each well of the minifold was washed four times with […] 2×SSC. The membrane was removed from the minifold and washed 2 more times in a pyrex dish with an excess of 2×SSC. Finally the membrane was drained on absorbent paper, placed on Whatman #3 paper, covered with saran wrap, and exposed to film overnight.
The HIV1LAI virus was obtained from R. Gallo (see M. Popovic et al., Science 224, 497 (1984)) and propagated in CEM cells cultured in RPMI 1640 containing 10-% FCS. Supernatant from the infected CEM cells was passed through a […] and the infectious titer estimated in a microinfectivity assay using the AA5 cell line to support virus replication. For this purpose 25 ml of serially diluted virus was added to 75 ml AA5 cells at 2×10^5/ml in a 96 well microtiter plate. Each virus dilution was tested in triplicate. Cells were cultured for eight days by addition of fresh medium every other day. On day 8 post infection supernatant samples were tested for virus replication as evidenced by RT activity released to the supernatant in accordance with the procedure described above. The TCID50 was calculated according to the Reed and Muench formula in accordance with known techniques. See L. Reed et al., Amer. J. Hygiene 27, 493 (1938) . The titer of the HIV-1LAI stock used for these studies, as measured on the AA5 cell line, was approximately 1×10^7TCID50/ml. The two primary isolates were obtained from PBMCs of two infected donors, one from Brazil (HIV-1Br3) and the other Trinidad (HIV-1Q72775) by co-cultivation with PHA-blasted normal donor PBMCs in RPMI 1640 containing IL2. The infectious titers of the primary virus stocks were estimated by titration onto normal human PHA blasted PBMCs in a 96 well microtiter plate, again using RT activity released to the supernatant as evidence for successful infection. The infectious titer of both of these isolates was estimated to be approximately 1×10^3 TCID100/ml.
The peptides were next tested for blockade of infection by cell-free virus. The results shown in FIG. 3 are representative of several experiments in which the DP-107, 125, and (CS3) peptides were compared for potency in the blockade of HIVLAI, infection of AA5 cells. Each level of peptide was incubated in triplicate with about 500 TCID50 of virus and cells. After 7 days of culture, cell-free supernatant was tested for the presence of RT activity as a measure of successful infection.

In data set [4] the test system is two primary HIV-1 isolates (HIV-1Br3, HIV-1Q72775). The experiment in a line: Peptide inhibition of PBMC infection by primary isolates (RT activity readout). The note with it: FIG. 5. As for the experimental part: (§1) About 25 TCID100 of two primary isolates and HIV-1LAI were added to […] human PBMCs (about 1.5×10^6/ml) containing the indicated final concentrations of test peptide or 5T4. Each treatment condition was tested in duplicate and the cells were cultured in RPMI1640 containing 10% FCS 5% IL2. Four days post infection an equal number of fresh PBMCs were added to each well. This step allows for further expansion of virus and increases the […] in the final RT assay. Supernatant was harvested 8 days after infection and tested for the presence of reverse transcriptase activity.
(§2) The micro RT assay was adapted from Goff et al. (J. Virol. 38, 239 (1981)) and Willey et al. (J. Virol. 62, 139 (1988)). Supernatants from virus/cell cultures are made 1% in Triton-X100. A […] sample of supernatant was added to 50 ml of RT cocktail in a 96 well U bottom microtiter plate and the samples incubated at 370° C. for 90 min. […]
(§3) The HIV1LAI virus was obtained from R. Gallo (see M. Popovic et al., Science 224, 497 (1984)) and propagated in CEM cells cultured in RPMI 1640 containing 10-% FCS. […] The TCID50 was calculated according to the Reed and Muench formula in accordance with known techniques. […] The titer of the HIV-1LAI stock used for these studies, as measured on the AA5 cell line, was approximately 1×10^7TCID50/ml. […]

In data set [5] the test system is HIV-1LAI. Nature of the data set: Peptide inhibition of PBMC infection by prototypic isolate (RT activity readout). The note with it: FIG. 5. As for the experimental part: as §1, §2, §3

For “Ac-NNLLRAIEAQQHLLQLTVWGIKQLQARILAVERYLKDQ-NH2 [DP-107]”, in data set [1], the “Viability and growth rate of CEM cells” value was “same viability and growth rate as control cultures”.
On to “CGNNLLRAIEAQQHLLQLTVWGIKQLQARILAVERYLKDQ (CGGNNLLRAIEAQQHLLQLTVWGIKQLQARILAVERYLKDQ) [DP-125]”, for which the “Syncytia Number” value in data set [2] (EXP. 2, peptide concentration 1.25 micrograms/ml, 0 peptide = 93) was 35; in data set [2] (EXP. 2, peptide concentration 2.5 micrograms/ml, 0 peptide = 93), 3; in data set [2] (EXP. 2, peptide concentration 5 micrograms/ml, 0 peptide = 93), 0; in data set [2] (EXP. 2, peptide concentration 10 micrograms/ml, 0 peptide = 93), 0; in data set [2] (EXP. 2, peptide concentration 20 micrograms/ml, 0 peptide = 93), 0; in data set [2] (EXP. 2, peptide concentration 40 micrograms/ml, 0 peptide = 93), 0. Also, the “Syncytia Number” value in data set [2] (EXP. 3, peptide concentration 1.25 micrograms/ml, 0 peptide = 76) is 0; in data set [2] (EXP. 3, peptide concentration 2.5 micrograms/ml, 0 peptide = 76), 0; in data set [2] (EXP. 3, peptide concentration 5 micrograms/ml, 0 peptide = 76) it was 0; in data set [2] (EXP. 3, peptide concentration 10 micrograms/ml, 0 peptide = 76), 0; in data set [2] (EXP. 3, peptide concentration 20 micrograms/ml, 0 peptide = 76), 0; in data set [2] (EXP. 3, peptide concentration 40 micrograms/ml, 0 peptide = 76) it was 0. The “No. Syncytia/well” value in data set [2] (peptide concentration 1.25 ug/ml on IIIB), in data set [2] (peptide concentration 2.5 ug/ml on IIIB), in data set [2] (peptide concentration 5 ug/ml on IIIB), in data set [2] (peptide concentration 10 ug/ml on IIIB), in data set [2] (peptide concentration 20 ug/ml on IIIB) and in data set [2] (peptide concentration 40 ug/ml on IIIB) was 0 each time. Also, in data set [2] (control = 90 syncytia), the “Fusion: quantity of compound required for 90% reduction in number of syncytia” value is under 1 µg/mL. The “Concentration required for inhibition relative to DP107” value in data set [2] (syncytial blocking assays, Table 1 experiments 2 and 3) was “one-half to one-fourth”. In data set [3], the “Neutraliz: quantity of compound required for 90% reduction in infectivity” value stood at 2 µg/mL. Besides, in data set [3] (FIG. 3), the “Dose required for inhibitory effect compared with DP-107 (in words)” value is “lower”. In addition, the “Blockade of HIVLAI infection of AA5 cells (in words)” value in data set [3] (about 500 TCID50 of virus, RT activity in supernatant, FIG. 3) is reported as “inhibited the de-novo infection process”. Also, the “Inhibition of PBMC infection by primary isolates (in words)” value in data set [4] is “inhibit”. Also, the “Inhibition of PBMC infection by prototypic isolate HIVLAI (in words)” value in data set [5] is recorded as “inhibit”.
